Residues, ends and D or L forms follow the SMILES beside them. *: point of attachment. AMC = Cc1cc(=O)oc2cc(N*)ccc12; Cbz = O=C(OCc1ccccc1)*

In assay [1] the target is T1, rSeCP (Spirometra erinaceieuropaei, UniProt O02586).
T1 construct: MBP fusion (pMAL-c2X, E. coli TB1), 19-residue signal peptide omitted, proform 36 kDa plus MBP 43 kDa, 79 kDa, tag kept; full-length ORF 336 residues
As to the kind of experiment: AMC fluorescence, […] nm. It counts as biochemical. The note with it: 3 μM substrate, 100 mM sodium acetate, 5 mM DTT, pH 5.5, 37°C.

For assay [2], the target named is T1, rSeCP. As to the kind of experiment: fluorogenic peptidase assay, Z-Phe-Arg-AMC. It counts as biochemical. The text has this:
fluorogenic peptidase assay, Z-Phe-Arg-AMC on rSeCP

T1 sequence (O02586 entry or part of it): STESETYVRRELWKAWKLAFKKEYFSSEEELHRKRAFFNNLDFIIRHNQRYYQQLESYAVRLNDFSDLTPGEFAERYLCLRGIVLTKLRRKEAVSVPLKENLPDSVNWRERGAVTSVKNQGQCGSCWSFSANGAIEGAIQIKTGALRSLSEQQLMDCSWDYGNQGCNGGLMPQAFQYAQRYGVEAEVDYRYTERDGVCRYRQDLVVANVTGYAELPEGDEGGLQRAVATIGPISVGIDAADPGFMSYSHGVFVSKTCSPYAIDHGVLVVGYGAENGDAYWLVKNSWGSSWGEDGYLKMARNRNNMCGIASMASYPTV

In the case of `Cc1cc(=O)oc2cc(NC(=O)[C@H](CCCNC(=N)N)NC(=O)[C@H](Cc3ccccc3)NC(=O)OCc3ccccc3)ccc12` [Z-Phe-Arg-AMC, Z-carbobenzoxy-L-phenylalanyl-L-arginine-(7-amino-4-methylcoumarin)] (Cbz-Phe-Arg-{AMC}), the “AMC fluorescence, 355/460 nm” value in assay [1] is “determined by cleavage of the fluorescent substrate Z-carbobenzoxy-L-phenylalanyl-L-arginine-(7-amino-4-methylcoumarin) (Z-Phe-Arg-AMC, Sigma)”. `CC(C)C[C@H](NC(=O)[C@H]1O[C@@H]1C(=O)O)C(=O)NCCCCN=C(N)N` [E-64, L-trans-epoxysuccinyl-leucylamide (4-guanidino) butane] gave an activity at 5 µM in assay [2] of 0.8%.

Values taken from publication PMC4457932, “Characterization of Spirometra erinaceieuropaei Plerocercoid Cysteine Protease and Potential Application for Serodiagnosis of Sparganosis” (PLoS Neglected Tropical Diseases, 2015).
